# Test results published in PubChem BioAssay (NCI).
#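 Tested at 5 concentrations; 48 h exposure; 96-well plates; endpoints linearly interpolated, else capped at highest concentration. Abbreviation: GI50, concentration required for 50% inhibition of growth. The concentration for full growth arrest is given as TGI.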
# Tested on: SNB-75 CNS
# Experiment: growth of human tumour cells (NCI), 48 h
Compound,GI50,TGI
CCn1c(-c2nonc2N)nc2c(C#CC(C)(C)O)nc(OC[C@H](N)c3ccccc3)cc21,0.926 µM,4.65 µM
O=C1/C(=C/c2ccc(Br)cc2)COc2ccc(O)c(O)c21,1.23 µM,3.01 µM
CCCCCCNC(=O)c1cc(NCc2cc(O)ccc2O)ccc1O,4.63 µM,21.1 µM
CC(CCC=O)CCOCc1ccccc1 (stereo not given),,> 100 µM
Cc1ccc(C)c(C2=C(c3cn(C)c4ccccc34)C(=O)NC2=O)c1,1.15 µM,> 25 µM
O=C(Nc1nc2ccc(C(F)(F)F)cc2s1)c1cc(Cl)ccc1O,1.59 µM,7.24 µM
CN(C)N=Nc1ccc(NC=O)cc1,,> 100 µM
COc1ccc2c(c1)CCCC(Br)C2=O (stereo not given),,27.9 µM
COc1ccc(-n2cc(-c3cc(OC)c(OC)c(OC)c3)c(C(=O)C(F)(F)F)c2C)cc1,13.8 µM,> 100 µM
COc1cc(C2CC(c3cccc(Br)c3)=NN2C(C)=O)cc(OC)c1OC (stereo not given),0.368 µM,> 100 µM
COc1cc(N(CCC#N)CCC#N)ccc1/C(N=Nc1ccc([N+](=O)[O-])cc1)=N/NC(=O)c1cc(Br)ccc1O,28.4 µg/mL,83.6 µg/mL

# Tested on: MCF7 breast
# Experiment: growth of human tumour cells (NCI), 48 h
Compound,GI50,TGI
CCn1c(-c2nonc2N)nc2c(C#CC(C)(C)O)nc(OC[C@H](N)c3ccccc3)cc21,2.92 µM,6.16 µM
O=C1/C(=C/c2ccc(Br)cc2)COc2ccc(O)c(O)c21,0.353 µM,1.67 µM
CCCCCCNC(=O)c1cc(NCc2cc(O)ccc2O)ccc1O,5.01 µM,27.7 µM
CC(CCC=O)CCOCc1ccccc1 (stereo not given),,22.7 µM
Cc1ccc(C)c(C2=C(c3cn(C)c4ccccc34)C(=O)NC2=O)c1,6.81 µM,> 25 µM
O=C(Nc1nc2ccc(C(F)(F)F)cc2s1)c1cc(Cl)ccc1O,2.18 µM,> 100 µM
CN(C)N=Nc1ccc(NC=O)cc1,,> 100 µM
COc1ccc2c(c1)CCCC(Br)C2=O (stereo not given),,15.1 µM
COc1ccc(-n2cc(-c3cc(OC)c(OC)c(OC)c3)c(C(=O)C(F)(F)F)c2C)cc1,14.2 µM,> 100 µM
COc1cc(C2CC(c3cccc(Br)c3)=NN2C(C)=O)cc(OC)c1OC (stereo not given),0.208 µM,27.1 µM
COc1cc(N(CCC#N)CCC#N)ccc1/C(N=Nc1ccc([N+](=O)[O-])cc1)=N/NC(=O)c1cc(Br)ccc1O,42.3 µg/mL,> 150 µg/mL

# Tested on: PC-3 prostate
# Experiment: growth of human tumour cells (NCI), 48 h
Compound,GI50,TGI
CCn1c(-c2nonc2N)nc2c(C#CC(C)(C)O)nc(OC[C@H](N)c3ccccc3)cc21,3.92 µM,8.87 µM
O=C1/C(=C/c2ccc(Br)cc2)COc2ccc(O)c(O)c21,0.599 µM,2.42 µM
CCCCCCNC(=O)c1cc(NCc2cc(O)ccc2O)ccc1O,2.47 µM,12 µM
CC(CCC=O)CCOCc1ccccc1 (stereo not given),,> 100 µM
Cc1ccc(C)c(C2=C(c3cn(C)c4ccccc34)C(=O)NC2=O)c1,13.8 µM,> 25 µM
O=C(Nc1nc2ccc(C(F)(F)F)cc2s1)c1cc(Cl)ccc1O,0.318 µM,11.9 µM
CN(C)N=Nc1ccc(NC=O)cc1,,> 100 µM
COc1ccc2c(c1)CCCC(Br)C2=O (stereo not given),,16.7 µM
COc1ccc(-n2cc(-c3cc(OC)c(OC)c(OC)c3)c(C(=O)C(F)(F)F)c2C)cc1,9.01 µM,> 100 µM
COc1cc(C2CC(c3cccc(Br)c3)=NN2C(C)=O)cc(OC)c1OC (stereo not given),0.162 µM,36.2 µM
COc1cc(N(CCC#N)CCC#N)ccc1/C(N=Nc1ccc([N+](=O)[O-])cc1)=N/NC(=O)c1cc(Br)ccc1O,37 µg/mL,> 150 µg/mL

# Tested on: A498 renal
# Experiment: growth of human tumour cells (NCI), 48 h
Compound,GI50,TGI
CCn1c(-c2nonc2N)nc2c(C#CC(C)(C)O)nc(OC[C@H](N)c3ccccc3)cc21,0.157 µM,7.63 µM
O=C1/C(=C/c2ccc(Br)cc2)COc2ccc(O)c(O)c21,2.97 µM,7.75 µM
CCCCCCNC(=O)c1cc(NCc2cc(O)ccc2O)ccc1O,16.1 µM,> 100 µM
CC(CCC=O)CCOCc1ccccc1 (stereo not given),,> 100 µM
Cc1ccc(C)c(C2=C(c3cn(C)c4ccccc34)C(=O)NC2=O)c1,> 12.1 µM,> 22.8 µM
O=C(Nc1nc2ccc(C(F)(F)F)cc2s1)c1cc(Cl)ccc1O,0.309 µM,2.26 µM
CN(C)N=Nc1ccc(NC=O)cc1,,> 100 µM
COc1ccc2c(c1)CCCC(Br)C2=O (stereo not given),,36.4 µM
COc1ccc(-n2cc(-c3cc(OC)c(OC)c(OC)c3)c(C(=O)C(F)(F)F)c2C)cc1,6.4 µM,> 100 µM
COc1cc(C2CC(c3cccc(Br)c3)=NN2C(C)=O)cc(OC)c1OC (stereo not given),0.514 µM,> 19.7 µM
COc1cc(N(CCC#N)CCC#N)ccc1/C(N=Nc1ccc([N+](=O)[O-])cc1)=N/NC(=O)c1cc(Br)ccc1O,86.6 µg/mL,> 150 µg/mL

# Tested on: UO-31 renal
# Experiment: growth of human tumour cells (NCI), 48 h
Compound,GI50,TGI
CCn1c(-c2nonc2N)nc2c(C#CC(C)(C)O)nc(OC[C@H](N)c3ccccc3)cc21,2.91 µM,6.83 µM
O=C1/C(=C/c2ccc(Br)cc2)COc2ccc(O)c(O)c21,0.307 µM,1.07 µM
CCCCCCNC(=O)c1cc(NCc2cc(O)ccc2O)ccc1O,1.22 µM,2.76 µM
CC(CCC=O)CCOCc1ccccc1 (stereo not given),,> 100 µM
Cc1ccc(C)c(C2=C(c3cn(C)c4ccccc34)C(=O)NC2=O)c1,13.4 µM,> 25 µM
O=C(Nc1nc2ccc(C(F)(F)F)cc2s1)c1cc(Cl)ccc1O,1.19 µM,8.79 µM
CN(C)N=Nc1ccc(NC=O)cc1,,> 100 µM
COc1ccc2c(c1)CCCC(Br)C2=O (stereo not given),,4.71 µM
COc1ccc(-n2cc(-c3cc(OC)c(OC)c(OC)c3)c(C(=O)C(F)(F)F)c2C)cc1,4.6 µM,> 100 µM
COc1cc(C2CC(c3cccc(Br)c3)=NN2C(C)=O)cc(OC)c1OC (stereo not given),3.33 µM,> 65.6 µM
COc1cc(N(CCC#N)CCC#N)ccc1/C(N=Nc1ccc([N+](=O)[O-])cc1)=N/NC(=O)c1cc(Br)ccc1O,48.4 µg/mL,> 150 µg/mL
